Legend:
human recombinant HDAC6 = target: T1, human recombinant HDAC6 (Homo sapiens, UniProt Q9UBN7); assay: HDAC6 enzyme activity inhibition (HDAC Fluorimetric Drug Discovery Kit); format: biochemical; details: for HDAC6 selectivity (fold): HDAC6 over HDAC1; for IC50: human recombinant HDAC6, same protocol as HDAC1
T1 construct: purchased Calbiochem Inc. 382180
T1 sequence (Q9UBN7 1-1215): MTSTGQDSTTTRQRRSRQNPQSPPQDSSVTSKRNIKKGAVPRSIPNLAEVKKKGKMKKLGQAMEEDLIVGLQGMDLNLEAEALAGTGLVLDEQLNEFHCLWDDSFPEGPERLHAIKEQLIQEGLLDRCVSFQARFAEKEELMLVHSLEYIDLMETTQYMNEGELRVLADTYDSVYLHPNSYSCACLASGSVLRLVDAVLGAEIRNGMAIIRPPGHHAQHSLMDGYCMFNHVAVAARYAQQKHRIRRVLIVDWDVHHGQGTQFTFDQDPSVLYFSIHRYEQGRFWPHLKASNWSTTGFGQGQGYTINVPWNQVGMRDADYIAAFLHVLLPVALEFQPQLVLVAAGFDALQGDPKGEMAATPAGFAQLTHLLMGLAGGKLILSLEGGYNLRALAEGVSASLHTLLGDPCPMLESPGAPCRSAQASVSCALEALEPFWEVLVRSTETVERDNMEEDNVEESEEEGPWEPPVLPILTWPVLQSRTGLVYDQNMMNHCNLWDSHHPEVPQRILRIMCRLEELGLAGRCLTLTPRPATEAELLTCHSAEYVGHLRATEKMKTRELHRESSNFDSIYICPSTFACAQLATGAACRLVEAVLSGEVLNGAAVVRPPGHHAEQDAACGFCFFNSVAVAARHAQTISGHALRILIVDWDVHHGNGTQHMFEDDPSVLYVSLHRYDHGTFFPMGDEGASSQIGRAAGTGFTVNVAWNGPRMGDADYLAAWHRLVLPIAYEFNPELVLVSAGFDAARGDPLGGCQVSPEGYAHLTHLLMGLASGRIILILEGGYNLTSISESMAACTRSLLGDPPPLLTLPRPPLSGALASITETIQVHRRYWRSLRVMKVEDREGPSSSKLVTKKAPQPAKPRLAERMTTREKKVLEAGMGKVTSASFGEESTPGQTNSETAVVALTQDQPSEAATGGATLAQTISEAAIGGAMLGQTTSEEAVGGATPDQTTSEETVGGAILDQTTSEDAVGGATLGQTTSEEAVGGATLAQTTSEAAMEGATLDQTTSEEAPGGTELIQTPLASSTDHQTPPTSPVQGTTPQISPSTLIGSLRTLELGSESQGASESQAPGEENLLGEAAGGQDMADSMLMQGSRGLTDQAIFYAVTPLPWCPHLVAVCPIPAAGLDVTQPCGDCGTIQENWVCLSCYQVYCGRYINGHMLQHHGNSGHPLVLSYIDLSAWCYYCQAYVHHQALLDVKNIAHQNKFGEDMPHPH
Summary of the method: (§1)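 Five-fold compound dilutions incubated with […] recombinant enzyme and 10 μM fluorogenic Fluor de Lys substrate, 60 min at 30° C. Fluor de Lys Developer II then added for 30 min to generate the fluorescent read-out.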

human recombinant HDAC1 = target: T2, human recombinant HDAC1 (Homo sapiens, UniProt Q13547); assay: HDAC1 enzyme activity inhibition (HDAC Fluorimetric Drug Discovery Kit); format: biochemical; details: human recombinant HDAC1, Fluor de Lys substrate, 30° C. 60 minutes; read-out: HDAC1
T2 construct: purchased Enzo Life Science, Inc. BML-SE456
Summary of the method: as §1

[1] = test system: hippocampal neurons from a Sprague-Dawley (SD) rat fetus; assay: Effect of HDAC6-specific inhibitor on axonal transport of mitochondria in amyloid-beta treated neurons; format: cell-based; details: transport velocity of mitochondria in neuronal axon after normalization; vehicle = 100%, amyloid beta treatment group = 0%; compound treatment for three hours
Summary of the method: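 Rat E17-18 hippocampal neurons exposed to amyloid-beta fragments […]; after 24 h (day 8 in vitro) compound added for 3 h, mitochondria stained with MitoTracker Red CMXRos. Confocal imaging every 1 s for 1 min gave per-mitochondrion velocity, normalized vehicle = 100%, amyloid-beta = 0%.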

T2 sequence (Q13547 whole entry): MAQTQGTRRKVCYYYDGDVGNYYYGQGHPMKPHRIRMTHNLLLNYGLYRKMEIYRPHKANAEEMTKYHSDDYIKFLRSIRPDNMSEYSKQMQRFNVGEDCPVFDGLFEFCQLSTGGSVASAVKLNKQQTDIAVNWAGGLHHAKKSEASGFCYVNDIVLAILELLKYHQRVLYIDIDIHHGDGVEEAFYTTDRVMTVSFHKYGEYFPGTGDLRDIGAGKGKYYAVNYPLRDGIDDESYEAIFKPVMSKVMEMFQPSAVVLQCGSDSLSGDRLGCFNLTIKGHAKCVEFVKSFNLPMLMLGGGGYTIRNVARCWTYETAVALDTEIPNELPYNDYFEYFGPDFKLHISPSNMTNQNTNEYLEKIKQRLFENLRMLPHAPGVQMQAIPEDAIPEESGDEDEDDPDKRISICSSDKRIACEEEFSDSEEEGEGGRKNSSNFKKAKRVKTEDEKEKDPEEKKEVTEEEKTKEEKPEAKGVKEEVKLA

HDAC6 selectivity (fold) (human recombinant HDAC6) | IC50 (human recombinant HDAC6) [µM] | IC50 (human recombinant HDAC1) [µM] | Compound | Velocity distribution (%) [1]
806 | 0.062 | > 50 | Fc1cc(-c2nnc(C(F)F)o2)ccc1Cn1cc(-c2ccc(CN3CC[C@H](F)C3)cn2)nn1 [Compound 18185, (S)-2-(difluoromethyl)-5-(3-fluoro-4-((4-(5-((3-fluoropyrrolidin-1-yl)methyl)pyridin-2-yl)-1H-1,2,3-triazol-1-yl)methyl)phenyl)-1,3,4-oxadiazole] | *** (***, >100%)
1184 | 0.0422 | > 50 | Fc1cc(-c2nnc(C(F)F)o2)cnc1Cn1cc(-c2ccc(CN3CCC3)cc2)nn1 [Compound 18306, 2-(6-((4-(4-(azetidin-1l-ylmethyl)phenyl)-1H-1,2,3-triazol-1-yl)methyl)-5-fluoropyridin-3-yl)-5-(difluoromethyl)-1,3,4-oxadiazole] | *** (***, >100%)
1028 | 0.0486 | > 50 | CC1CCN(Cc2ccc(-c3cn(Cc4ncc(-c5nnc(C(F)F)o5)cc4F)nn3)cc2)CC1 [Compound 18307, 2-(difluoromethyl)-5-(5-fluoro-6-((4-(4-((4-methylpiperidin-1-yl)methyl)phenyl)-1H-1,2,3-triazol-1-yl)methyl)pyridin-3-yl)-1,3,4-oxadiazole] | *** (***, >100%)
770 | 0.0649 | > 50 | CN(C)Cc1ccc(-c2cn(Cc3ncc(-c4nnc(C(F)F)o4)cc3F)nn2)cc1 [Compound 18308, 1-(4-(1-((5-(5-(difluoromethyl)-1,3,4-oxadiazol-2-yl)-3-fluoropyridin-2-yl)methyl)-1H-1,2,3-triazol-4-yl)phenyl)-N,N-dimethylmethanamine] | *** (***, >100%)
1160 | 0.0431 | > 50 | Fc1cc(-c2nnc(C(F)F)o2)cnc1Cn1cc(-c2ccc(CN3CCC3)s2)nn1 [Compound 18309, 2-(6-((4-(5-(azetidin-1-ylmethyl)thiophen-2-yl)-1H-1,2,3-triazol-1-yl)methyl)-5-fluoropyridin-3-yl)-5-(difluoromethyl)-1,3,4-oxadiazole] | ** (**, 50%˜100%)
2304 | 0.0217 | > 50 | Fc1cc(-c2nnc(C(F)F)o2)cnc1Cn1cc(-c2cccc3[nH]ncc23)nn1 [Compound 19058, 2-(6-((4-(1H-indazol-4-yl)-1H-1,2,3-triazol-1-yl)methyl)-5-fluoropyridin-3-yl)-5-(difluoromethyl)-1,3,4-oxadiazole] | *** (***, >100%)

Source: US20230257372A1 (CHONG KUN DANG PHARMACEUTICAL CORP., priority 2020, published 2023)
